Experimental data: paper PMC9230645, “Discovery of GSK3β Inhibitors through In Silico Prediction-and-Experiment Cycling Strategy, and Biological Evaluation” (Molecules, 2022)

Experiments:
GSK3β [1] = target: T1, GSK3β (Homo sapiens, UniProt P49841); assay: GSK3β kinase assay (TR-FRET / Lance HTRF); assay type: biochemical; conditions: for inhibition at 0.5 µM: 0.5 μM compound; for inhibition at 5 µM: 5 μM compound; for IC50: Table 1, means ± SD (n = 2)
T1 construct: purchased Carna Biosciences
Description: The GSK3β inhibitory activities of the virtually-selected 3000 compounds were screened by a Lance HTRF assay. At a concentration of 10 μM, the single-point screening signal-to-noise (S/N) ratio, Z factor, and Z’ factor of the assay was 7.3, 0.48 and 0.61, respectively.

GSK3β [2] = target: T1, GSK3β; assay: Five-by-five-concentration kinetic analysis of GSK3β inhibition versus ATP (Lineweaver–Burk); assay type: biochemical
GSK3β [3] = target: T1, GSK3β; assay: Reversibility assay (dilution method); assay type: biochemical; conditions: pre-incubated with 1 µM for 30 min, then diluted
Description: Figure 3 In vitro assay. […] (b) Competitive inhibition by cpd1 and SB216873. Compounds were tested using 4-point 2-fold serial dilution, starting from 1 µM or 0.25 µM at 5 different concentration of ATP (200, 100, 50, 33.3, and 25 µM). (c) Reversibility test.
The in vitro enzyme TR-FRET (time-resolved fluorescence energy transfer) assays were performed in 384-well white plates (Greiner) at room temperature (25 °C) using an HTS system from Biomek FX (Beckman Coulter) and a Stella robot. The assay was performed in a final volume of 10 µL in a kinase buffer of 50 mM HEPES, pH 7.5, 1 mM EGTA, 10 mM MgCl2, 2 mM DTT, and 0.01% Tween-20. The 3000 virtually-selected compounds in the 5 mM DMSO stock were diluted into desired concentrations with kinase buffer. A total of 5 µL of GSK3β (Carna Biosciences, 0.5 ng/well) and 2.5 µL of compounds were added to the assay plates and, then, 2.5 µL of the ULight-GS Peptide (Ser641/pSer657, […](pS)ED, #TRF0131 PerkinElmer, 50 nM final concentration)/ATP mixture were added. […] After incubation for 1 h, the fluorescence signal was read in excitation at 320 nm with an emission at 665 nm with the Envision Multilabel Plate Reader (PerkinElmer). Experimental data from dose–response curves were analyzed by nonlinear regression analysis with GraphPad Prism, version 7.00 for Windows, and the IC50 values were obtained. […]

Wnt/β-catenin signaling = assay: HEK293 TOP flash reporter assay; assay type: cell-based; conditions: 5 µM, HEK293 TOP flash reporter cells, 18 h
Description: The pharmacologic inhibition of GSK3β’s activity can lead to β-catenin stabilization and subsequently activate Wnt/β-catenin signaling. To measure the inhibitory activities of the compounds selected in GSK3β enzyme-based high-throughput screening, these were treated in HEK293 TOP flash reporter cells at various concentrations.
The HEK293 reporter cells (HEK293 cells containing the chromosomally incorporated TOPflash gene) were provided by KY Choi (Yonsei University, Seoul, Korea). The HEK293 reporter cells were cultured in DMEM (Gibco) supplemented with 10% FBS (Gibco). To test the activates of GSK3β inhibition for hit compounds, HEK293 reporter cells were seeded into 96-well black polystyrene plates (Greiner Bio-One, Kremsmünster, Austria) at 1.5 × 10^4 cells per well and cultured for 24 h. Hit compounds, a positive control (CHIR99021, SelleckChem, Houston, TX, USA) or control (DMSO) were added to the wells at the indicated concentrations. After 18 h, the plates were assayed for firefly luciferase activity; relative reporter activity was determined after the data were normalized relative to the value of the WST-1 (Takara Korea Biomedical Inc., Seoul, Korea) cell viability analysis. Statistical analyses were performed using Prism 8 (GraphPad Software). […]

T1 sequence (P49841 whole entry): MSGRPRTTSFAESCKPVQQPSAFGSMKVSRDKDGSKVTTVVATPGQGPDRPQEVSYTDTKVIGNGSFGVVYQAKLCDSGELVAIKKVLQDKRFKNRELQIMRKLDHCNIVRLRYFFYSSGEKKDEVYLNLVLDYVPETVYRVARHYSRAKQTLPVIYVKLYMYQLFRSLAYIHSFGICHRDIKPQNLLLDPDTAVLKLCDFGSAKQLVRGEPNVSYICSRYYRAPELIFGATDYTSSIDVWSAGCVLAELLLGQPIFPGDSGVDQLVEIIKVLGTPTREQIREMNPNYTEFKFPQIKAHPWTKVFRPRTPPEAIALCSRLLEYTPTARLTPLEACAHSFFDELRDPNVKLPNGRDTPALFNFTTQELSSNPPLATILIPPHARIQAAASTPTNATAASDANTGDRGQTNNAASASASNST

| Compound | inhibition at 0.5 µM (GSK3β [1]) [%] | inhibition at 5 µM (GSK3β [1]) [%] | IC50 (GSK3β [1]) [nM] | Ki (GSK3β [2]; 5 ATP concentrations (200, 100, 50, 33.3, 25 µM), read-out: slope inhibition constant K is) [nM] | inhibition pattern of GSK3β-catalyzed phosphorylation (GSK3β [2]; versus ATP) | enzyme-binding reversibility (GSK3β [3]) | TOP flash activity induction (Wnt/β-catenin signaling) [fold] |
| --- | --- | --- | --- | --- | --- | --- | --- |
| CCc1nccn1CCCNc1cc(-c2ccc(F)cc2)nc2ccnn12 [Compound 1, N-(3-(2-ethyl-1H-imidazol-1-yl)propyl)-5-(4-fluorophenyl)pyrazolo[1,5-a]pyrimidin-7-amine] | 100 | 100 | 37 ± 6 | 41.8 | competitive | reversible | 3.5 |
| CCc1cc(NCc2scnc2-c2ccccc2)n2nccc2n1 [Compound 6] | 45 | 91 | 730 ± 113 | – | – | – | – |
| Cc1cc(NCCCNc2cccnc2)n2nccc2n1 [Compound 7] | 30 | 90 | 1030 ± 66 | – | – | – | – |
| Cc1c(CNc2cc(-c3ccccc3F)nc3ccnn23)cnn1C [Compound 4] | 57 | 96 | 347 ± 56 | – | – | – | – |
| Cc1nc[nH]c1CSCCNc1cc(-c2ccccc2)nc2ccnn12 [Compound 2] | 78 | 100 | 211 ± 55 | – | – | – | – |
| Cn1cc(C2=C(c3ccc(Cl)cc3Cl)C(=O)NC2=O)c2ccccc21 [8 (SB216763), SB216763, reference compound] | 61 | 100 | – | – | – | – | – |
| COCc1cc(NCc2nnn[nH]2)n2nccc2n1 [Compound 5] | 38 | 95 | 701 ± 118 | – | – | – | – |
